Columns and labels:
Test in all cases: cells
LOUCY = type: functional, cell-based, Homo sapiens; settings: Homo sapiens, LOUCY
Description: SANGER: Inhibition of human LOUCY cell growth in a cell viability assay.

BL-41 = type: functional, cell-based; settings: Homo sapiens
Description: SANGER: Inhibition of human BL-41 cell growth in a cell viability assay.

LB373-MEL-D = type: functional, cell-based, Homo sapiens; settings: Homo sapiens, LB373-MEL-D
Description: SANGER: Inhibition of human LB373-MEL-D cell growth in a cell viability assay.

COR-L23 = type: functional, cell-based; settings: Homo sapiens
Description: SANGER: Inhibition of human COR-L23 cell growth in a cell viability assay.

OE33 = type: functional, cell-based; settings: Homo sapiens
Description: SANGER: Inhibition of human OE33 cell growth in a cell viability assay.

OVCAR-5 = type: functional, cell-based; settings: Homo sapiens
Description: SANGER: Inhibition of human OVCAR-5 cell growth in a cell viability assay.

UACC-893 = type: functional, cell-based; settings: Homo sapiens
Description: SANGER: Inhibition of human UACC-893 cell growth in a cell viability assay.

KYSE-180 = type: functional, cell-based; settings: Homo sapiens
Description: SANGER: Inhibition of human KYSE-180 cell growth in a cell viability assay.

PC-14 = type: functional, cell-based; settings: Homo sapiens
Description: SANGER: Inhibition of human PC-14 cell growth in a cell viability assay.

CAL-85-1 = type: functional, cell-based; settings: Homo sapiens
Description: SANGER: Inhibition of human CAL-85-1 cell growth in a cell viability assay.

NALM-6 = type: functional, cell-based, Homo sapiens; settings: Homo sapiens, NALM-6
Description: SANGER: Inhibition of human NALM-6 cell growth in a cell viability assay.

MDA-MB-453 = type: functional, cell-based; settings: Homo sapiens
Description: SANGER: Inhibition of human MDA-MB-453 cell growth in a cell viability assay.

NCI-H520 = type: functional, cell-based; settings: Homo sapiens
Description: SANGER: Inhibition of human NCI-H520 cell growth in a cell viability assay.

NCI-H1563 = type: functional, cell-based; settings: Homo sapiens
Description: SANGER: Inhibition of human NCI-H1563 cell growth in a cell viability assay.

KYSE-270 = type: functional, cell-based; settings: Homo sapiens
Description: SANGER: Inhibition of human KYSE-270 cell growth in a cell viability assay.

NCI-H2342 = type: functional, cell-based; settings: Homo sapiens
Description: SANGER: Inhibition of human NCI-H2342 cell growth in a cell viability assay.

NCI-H441 = type: functional, cell-based; settings: Homo sapiens
Description: SANGER: Inhibition of human NCI-H441 cell growth in a cell viability assay.

MC-CAR = type: functional, cell-based, Homo sapiens; settings: Homo sapiens, MC-CAR
Description: SANGER: Inhibition of human MC-CAR cell growth in a cell viability assay.

MKN-28 = type: functional, cell-based; settings: Homo sapiens
Description: SANGER: Inhibition of human MKN28 cell growth in a cell viability assay.

NCI-H522 = type: functional, cell-based; settings: Homo sapiens
Description: SANGER: Inhibition of human NCI-H522 cell growth in a cell viability assay.

AN3-CA = type: functional, cell-based; settings: Homo sapiens
Description: SANGER: Inhibition of human AN3-CA cell growth in a cell viability assay.

SUP-T1 = type: functional, cell-based, Homo sapiens; settings: Homo sapiens, SUP-T1
Description: SANGER: Inhibition of human SUP-T1 cell growth in a cell viability assay.

EFO-27 = type: functional, cell-based; settings: Homo sapiens
Description: SANGER: Inhibition of human EFO-27 cell growth in a cell viability assay.

NCI-H1703 = type: functional, cell-based; settings: Homo sapiens
Description: SANGER: Inhibition of human NCI-H1703 cell growth in a cell viability assay.

NCI-H2052 = type: functional, cell-based; settings: Homo sapiens
Description: SANGER: Inhibition of human NCI-H2052 cell growth in a cell viability assay.

CA46 = type: functional, cell-based, Homo sapiens; settings: Homo sapiens, CA46
Description: SANGER: Inhibition of human CA46 cell growth in a cell viability assay.

SW948 = type: functional, cell-based; settings: Homo sapiens
Description: SANGER: Inhibition of human SW948 cell growth in a cell viability assay.

RERF-LC-MS = type: functional, cell-based; settings: Homo sapiens
Description: SANGER: Inhibition of human RERF-LC-MS cell growth in a cell viability assay.

23132-87 = type: functional, cell-based; settings: Homo sapiens
Description: SANGER: Inhibition of human 23132-87 cell growth in a cell viability assay.

SW1463 = type: functional, cell-based; settings: Homo sapiens
Description: SANGER: Inhibition of human SW1463 cell growth in a cell viability assay.

RD = type: functional, cell-based; settings: Homo sapiens
Description: SANGER: Inhibition of human RD cell growth in a cell viability assay.

KYSE-140 = type: functional, cell-based; settings: Homo sapiens
Description: SANGER: Inhibition of human KYSE-140 cell growth in a cell viability assay.

BC-3 = type: functional, cell-based, Homo sapiens; settings: Homo sapiens, BC-3
Description: SANGER: Inhibition of human BC-3 cell growth in a cell viability assay.

PC-3 = type: functional, cell-based; settings: Homo sapiens
Description: SANGER: Inhibition of human PC-3 cell growth in a cell viability assay.

YAPC = type: functional, cell-based; settings: Homo sapiens
Description: SANGER: Inhibition of human YAPC cell growth in a cell viability assay.

HCC1806 = type: functional, cell-based; settings: Homo sapiens
Description: SANGER: Inhibition of human HCC1806 cell growth in a cell viability assay.

NCI-H1573 = type: functional, cell-based; settings: Homo sapiens
Description: SANGER: Inhibition of human NCI-H1573 cell growth in a cell viability assay.

C3A = type: functional, cell-based; settings: Homo sapiens
Description: SANGER: Inhibition of human C3A cell growth in a cell viability assay.

CaR-1 = type: functional, cell-based; settings: Homo sapiens
Description: SANGER: Inhibition of human CaR-1 cell growth in a cell viability assay.

SK-HEP1 = type: functional, cell-based, SK-HEP-1; settings: Homo sapiens
Description: SANGER: Inhibition of human SK-HEP-1 cell growth in a cell viability assay.

HCC1599 = type: functional, cell-based, Homo sapiens; settings: Homo sapiens, HCC1599
Description: SANGER: Inhibition of human HCC1599 cell growth in a cell viability assay.

PFSK-1 = type: functional, cell-based; settings: Homo sapiens
Description: SANGER: Inhibition of human PFSK-1 cell growth in a cell viability assay.

Daoy = type: functional, cell-based; settings: Homo sapiens
Description: SANGER: Inhibition of human Daoy cell growth in a cell viability assay.

AU565 = type: functional, cell-based; settings: Homo sapiens
Description: SANGER: Inhibition of human AU565 cell growth in a cell viability assay.

SNU-387 = type: functional, cell-based; settings: Homo sapiens
Description: SANGER: Inhibition of human SNU-387 cell growth in a cell viability assay.

COLO-680N = type: functional, cell-based; settings: Homo sapiens
Description: SANGER: Inhibition of human COLO-680N cell growth in a cell viability assay.

HCT-15 = type: functional, cell-based; settings: Homo sapiens
Description: SANGER: Inhibition of human HCT-15 cell growth in a cell viability assay.

LP-1 = type: functional, cell-based, Homo sapiens; settings: Homo sapiens, LP-1
Description: SANGER: Inhibition of human LP-1 cell growth in a cell viability assay.

LU-165 = type: functional, cell-based, Homo sapiens; settings: Homo sapiens, LU-165
Description: SANGER: Inhibition of human LU-165 cell growth in a cell viability assay.

MDA-MB-231 = type: functional, cell-based; settings: Homo sapiens
Description: SANGER: Inhibition of human MDA-MB-231 cell growth in a cell viability assay.

FaDu = type: functional, cell-based; settings: Homo sapiens
Description: SANGER: Inhibition of human FADU cell growth in a cell viability assay.

CAL-54 = type: functional, cell-based; settings: Homo sapiens
Description: SANGER: Inhibition of human CAL-54 cell growth in a cell viability assay.

RPMI-6666 = type: functional, cell-based, Homo sapiens; settings: Homo sapiens, RPMI-6666
Description: SANGER: Inhibition of human RPMI-6666 cell growth in a cell viability assay.

NCI-H187 = type: functional, cell-based, Homo sapiens; settings: Homo sapiens, NCI-H187
Description: SANGER: Inhibition of human NCI-H187 cell growth in a cell viability assay.

SCC-4 = type: functional, cell-based; settings: Homo sapiens
Description: SANGER: Inhibition of human SCC-4 cell growth in a cell viability assay.

NCI-H1522 = type: functional, cell-based, Homo sapiens; settings: Homo sapiens, NCI-H1522
Description: SANGER: Inhibition of human NCI-H1522 cell growth in a cell viability assay.

U-698-M = type: functional, cell-based, Homo sapiens; settings: Homo sapiens, U-698-M
Description: SANGER: Inhibition of human U-698-M cell growth in a cell viability assay.

NCI-H292 = type: functional, cell-based; settings: Homo sapiens
Description: SANGER: Inhibition of human NCI-H292 cell growth in a cell viability assay.

UMC-11 = type: functional, cell-based; settings: Homo sapiens
Description: SANGER: Inhibition of human UMC-11 cell growth in a cell viability assay.

Kasumi 1 = type: functional, cell-based, Homo sapiens; settings: Homo sapiens, Kasumi 1
Description: SANGER: Inhibition of human KASUMI-1 cell growth in a cell viability assay.

## COc1ccc(-c2cc3nccn3c(Nc3ncccc3C(N)=O)n2)cc1OC
LOUCY
  IC50: 3.65 µM
BL-41
  IC50: 1.39 µM
LB373-MEL-D
  IC50: > 8 µM
COR-L23
  IC50: 2.38 µM
OE33
  IC50: > 8 µM
OVCAR-5
  IC50: 7.41 µM
UACC-893
  IC50: > 8 µM
KYSE-180
  IC50: 5.62 µM
PC-14
  IC50: > 8 µM
CAL-85-1
  IC50: 3.33 µM
NALM-6
  IC50: 0.417 µM
MDA-MB-453
  IC50: > 8 µM
NCI-H520
  IC50: > 8 µM
NCI-H1563
  IC50: > 8 µM
KYSE-270
  IC50: 1.45 µM
NCI-H2342
  IC50: 1.82 µM
NCI-H441
  IC50: 5.65 µM
MC-CAR
  IC50: 1.14 µM
MKN-28
  IC50: 4.49 µM
NCI-H522
  IC50: > 8 µM
AN3-CA
  IC50: 4.66 µM
SUP-T1
  IC50: 2.1 µM
EFO-27
  IC50: 2.06 µM
NCI-H1703
  IC50: > 8 µM
NCI-H2052
  IC50: > 8 µM
CA46
  IC50: 1.08 µM
SW948
  IC50: > 8 µM
RERF-LC-MS
  IC50: > 8 µM
23132-87
  IC50: > 8 µM
SW1463
  IC50: > 8 µM
RD
  IC50: > 8 µM
KYSE-140
  IC50: 3.75 µM
BC-3
  IC50: 2.47 µM
PC-3
  IC50: > 8 µM
YAPC
  IC50: > 8 µM
HCC1806
  IC50: > 8 µM
NCI-H1573
  IC50: > 8 µM
C3A
  IC50: 6.53 µM
CaR-1
  IC50: > 8 µM
SK-HEP1
  IC50: 1.82 µM
HCC1599
  IC50: 2.69 µM
PFSK-1
  IC50: 7.19 µM
Daoy
  IC50: > 8 µM
AU565
  IC50: 7.15 µM
SNU-387
  IC50: 2.9 µM
COLO-680N
  IC50: > 8 µM
HCT-15
  IC50: 6.64 µM
LP-1
  IC50: 4.02 µM
LU-165
  IC50: 7.97 µM
MDA-MB-231
  IC50: > 8 µM
FaDu
  IC50: > 8 µM
CAL-54
  IC50: > 8 µM
RPMI-6666
  IC50: 1.44 µM
NCI-H187
  IC50: > 8 µM
SCC-4
  IC50: > 8 µM
NCI-H1522
  IC50: > 8 µM
U-698-M
  IC50: 1.02 µM
NCI-H292
  IC50: > 8 µM
UMC-11
  IC50: > 8 µM

## COC(=O)[C@H](CCSC)NC(=O)c1ccc(NC[C@@H](N)CS)cc1-c1ccccc1
LOUCY
  IC50: > 1.02 µM
BL-41
  IC50: > 1.02 µM
LB373-MEL-D
  IC50: > 1.02 µM
COR-L23
  IC50: > 1.02 µM
OE33
  IC50: > 1.02 µM
OVCAR-5
  IC50: > 1.02 µM
UACC-893
  IC50: > 1.02 µM
KYSE-180
  IC50: > 1.02 µM
PC-14
  IC50: > 1.02 µM
CAL-85-1
  IC50: > 1.02 µM
NALM-6
  IC50: > 1.02 µM
MDA-MB-453
  IC50: > 1.02 µM
NCI-H520
  IC50: > 1.02 µM
NCI-H1563
  IC50: > 1.02 µM
KYSE-270
  IC50: > 1.02 µM
NCI-H2342
  IC50: > 1.02 µM
NCI-H441
  IC50: > 1.02 µM
MC-CAR
  IC50: > 1.02 µM
MKN-28
  IC50: > 1.02 µM
NCI-H522
  IC50: > 1.02 µM
AN3-CA
  IC50: > 1.02 µM
SUP-T1
  IC50: > 1.02 µM
EFO-27
  IC50: > 1.02 µM
NCI-H1703
  IC50: > 1.02 µM
NCI-H2052
  IC50: > 1.02 µM
CA46
  IC50: > 1.02 µM
SW948
  IC50: > 1.02 µM
RERF-LC-MS
  IC50: > 1.02 µM
23132-87
  IC50: > 1.02 µM
SW1463
  IC50: > 1.02 µM
RD
  IC50: > 1.02 µM
KYSE-140
  IC50: > 1.02 µM
BC-3
  IC50: > 1.02 µM
PC-3
  IC50: > 1.02 µM
YAPC
  IC50: > 1.02 µM
HCC1806
  IC50: > 1.02 µM
C3A
  IC50: > 1.02 µM
CaR-1
  IC50: > 1.02 µM
SK-HEP1
  IC50: > 1.02 µM
HCC1599
  IC50: > 1.02 µM
PFSK-1
  IC50: > 1.02 µM
Daoy
  IC50: > 1.02 µM
AU565
  IC50: > 1.02 µM
SNU-387
  IC50: > 1.02 µM
COLO-680N
  IC50: > 1.02 µM
HCT-15
  IC50: > 1.02 µM
LP-1
  IC50: > 1.02 µM
LU-165
  IC50: > 1.02 µM
MDA-MB-231
  IC50: > 1.02 µM
FaDu
  IC50: > 1.02 µM
CAL-54
  IC50: > 1.02 µM
RPMI-6666
  IC50: > 1.02 µM
NCI-H187
  IC50: > 1.02 µM
SCC-4
  IC50: > 1.02 µM
NCI-H1522
  IC50: > 1.02 µM
U-698-M
  IC50: > 1.02 µM
NCI-H292
  IC50: > 1.02 µM
UMC-11
  IC50: > 1.02 µM
Kasumi 1
  IC50: > 1.02 µM

Reference: ChEMBL document CHEMBL1201861, “Genomics of Drug Sensitity in Cancer screening data, Wellcome Trust Sanger Institute”
